Measurements from US9034846B2, “Use of cyclodextrin for treatment and prevention of bronchial inflammatory diseases” (UNIVERSITE DE LIEGE, priority 2004, dated 2015).

How the values were obtained:
OVA exposed mice [1] = assay: Bronchial responsiveness to methacholine (Penh, barometric plethysmograph); format: in vivo, mouse; settings: FIG. 10
Method: (§1) In order to study modulation of airway inflammation, males BALB/c mice of 6 to 8 weeks old were sensitized by intraperitoneal injection of 10 μg ovalbumin (OVA) (Sigma Aldrich, Schnelldorf, Germany) emulsified in aluminum hydroxyde (AlumInject; Perbio, Erembodegem, Belgium) on days 1 and 8. Mice were subsequently exposed to allergens by daily inhalation of an aerosol of OVA 1%, for 30 minutes, generated by ultrasonic nebulizer (Devilbiss 2000), from day 21 to 27. […] Mice were sacrificed performed on day 28 as previously reported by Cataldo and al in Am. J. Pathol 2002; 161(2):491-498.
Twenty-four hours after the last allergen exposure, the bronchial hyper responsiveness was determined by measuring the Penh (Enhanced Pause) using a barometric plethysmograph (Emka technologies, Paris) as proposed by Hamelmann, E., et al., Am. J. Respir. Crit. Care Med. 156 (1997) 766-775). The Penh was measured at baseline and […] after the inhalation of increasing doses (25, 50, 75 and 100 mM) of methacholine (Mch).

OVA exposed mice [2] = assay: Peribronchial inflammation score by histology, OVA mouse model; format: in vivo
Method: as §1
(§2) After BAL, the thorax was opened and the left main bronchus was clamped. The left lung was excised and frozen immediately at −80° C. for protein and mRNA extraction. The right lung was infused with 4 ml paraformaldehyde 4%, embedded in paraffin and used for histology. Sections of 5 μm thickness were cut off from paraffin and were stained with haematoxylin-eosin. The extent of peribronchial inflammation was estimated by a score calculated by quantification of peribronchial inflammatory cells, as previously described by Cataldo D D, Tournoy K G, Vermaelen K et al. in Am J Pathol 2002; 161(2):491-498. A value of 0 was adjudged when no inflammation was detectable, a value of 1 when there was occasionally inflammatory cells, a value of 2 when most bronchi were surrounded by a thin layer (1 to 5 cells) of inflammatory cells and a value of 3 when most bronchi were surrounded by a thick layer (>5 cells) of inflammatory cells. Since 5-7 randomly selected tissue sections per mouse were scored, inflammation scores are expressed as a mean value and can be compared between groups. After Congo Red staining, the eosinophilic infiltration in the airway walls was quantified by manual count and reported to the perimeter of epithelial basement membrane defining an eosinophilic inflammatory score.

IL-13 = IL-13 ELISA in BAL and lung protein extracts, OVA mouse model; format: in vivo
Method: (§3) In order to study modulation of airway inflammation, males BALB/c mice of 6 to 8 weeks old were sensitized by intraperitoneal injection of 10 μg ovalbumin (OVA) (Sigma Aldrich, Schnelldorf, Germany) emulsified in aluminum hydroxyde (AlumInject; Perbio, Erembodegem, Belgium) on days 1 and 8. Mice were subsequently exposed to allergens by daily inhalation of an aerosol of OVA 1%, for 30 minutes, generated by ultrasonic nebulizer (Devilbiss 2000), from day 21 to 27. Mice were subjected to inhalation of β-CD, HP-β-CD HP 1, 7.5, 50 mM and HP-β-CD 50 mM 30 minutes before OVA inhalation. Mice were sacrificed performed on day 28 as previously reported by Cataldo and al in Am. J. Pathol 2002; 161(2):491-498.
The left lung was crushed using a Mikro-Dismembrator (Braun Biotech International, Gmbh Melsungen, Germany). For proteins extraction, the crushed lung tissue was incubated overnight at 4° C. in a solution containing 2M urea, 1M NaCl and 50 mM Tris (pH 7.5) and subsequently centrifuged 15 minutes at 16.000×g. The supernatant was stored at −80° C.
Eotaxin and IL-13 levels were assessed using commercial ELISAs (R&D systems, Abingdon, UK). Eotaxin was measured by incubation in a wheel coated with a primary antibody specifically dedicated to the recognition of the protein and after rinsing, a second antibody against eotaxin, coupled with horse radish peroxydase was used to quantify the amounts of eotaxin in the solution
IL-13 was measured by incubation in a wheel coated with a primary antibody specifically dedicated to the recognition of the protein and after rinsing, a second antibody against IL-13, coupled with horse radish peroxydase was used to quantify the amounts of […] in the solution.

OVA exposed mice [3] = assay: Bronchoalveolar lavage differential cell counts, OVA mouse model of asthma; format: in vivo; settings: for Eosinophils (%) in BAL / Epithelial cells (%) in BAL / Lymphocytes (%) in BAL / Macrophages (%) in BAL / Neutrophils (%) in BAL / Total cells (10^4/ml) in BAL: Table 2
Method: as §3
Immediately after assessment of airway responsiveness, and 24 hours after the last allergen exposure.
(§4) Mices were sacrificed and a bronchoalveolar lavage was performed using 4×1 ml PBS-EDTA 0.05 mM (Calbiochem, Darmstadt, Germany) as previously described by Cataldo D D, Tournoy K G, Vermaelen K et al. in Am J Pathol 2002; 161(2):491-498. Cells were recovered by gentle manual aspiration. After centrifugation of bronchoalveolar fluid (BALF) (1200 rpm for 10 minutes, at 4° C.), the supernatant was frozen at −80° C. for protein assessment and the cell pellet was resuspended in 1 ml PBS-EDTA 0.05 mM. The differential cell counts were performed on cytocentrifuged preparations (Cytospin) after staining with Diff-Quick (Dade, Belgium).

mice = assay: BAL differential cell counts after exposure to inhaled CRYSMEB (Table 1); format: in vivo, mouse
Method: as §4, with “Belgium). […]” for “Belgium).”

OVA exposed mice [4] = assay: Peribronchial eosinophil infiltration (Congo Red), OVA mouse model; format: in vivo; settings: after allergen exposure; FIG. 3
Method: as §3, §2

[5] = exposure to aerosolized CRYSMEB 30 min/day during 7 days
[6] = reference therapy, concentration not given

Compound: 2-O-methyl βcyclodextrin [CRYSMEB]
- methacholine-induced Penh increase (OVA exposed mice [1]; 10 mM inhalation): reduced
- responsiveness to methacholine (OVA exposed mice [1]; after allergen exposure, extent comparable to fluticasone): significantly reduced
- peribronchial inflammation score (OVA exposed mice [2]; 20 mM, compared to placebo, FIG. 9A): decreased inflammation score
- levels of IL-13 in whole lung protein extracts (IL-13; FIG. 11): significantly decreased
- Bronchoalveolar lavage eosinophilia (OVA exposed mice [3]; Example 2, treated groups vs placebo): significantly decreased
- Eosinophils (%) in BAL (OVA exposed mice [3]; 10 mM): 8.84 ± 2.946 %
- Epithelial cells (%) in BAL (OVA exposed mice [3]; 10 mM): 36.83 ± 5.644%
- Lymphocytes (%) in BAL (OVA exposed mice [3]; 10 mM): 0.214 ± 0.1079%
- Macrophages (%) in BAL (OVA exposed mice [3]; 10 mM): 52.714 ± 6.49%
- Neutrophils (%) in BAL (OVA exposed mice [3]; 10 mM): 1.26 ± 0.4587%
- Total cells (10^4/ml) in BAL (OVA exposed mice [3]; 10 mM): 131.93 ± 33.637 10^4/ml
- cellular composition of the bronchoalveolar lavage (mice; [5]): not significantly altered
- eosinophil and neutrophil counts in BAL (mice; [5]): no differences
- Eosinophils (%) in BAL (mice; inhaled 20 mM): 0.0375 ± 0.0375%
- Epithelial cells (%) in BAL (mice; inhaled 20 mM): 29.9 ± 5.909%
- Lymphocytes (%) in BAL (mice; inhaled 20 mM): 0.425 ± 0.1485%
- Macrophages (%) in BAL (mice; inhaled 20 mM): 69.5 ± 5.956%
- Neutrophils (%) in BAL (mice; inhaled 20 mM): 0.0375 ± 0.1061%
- Eosinophils (%) in BAL (mice; inhaled 50 mM): 0.1125 ± 0.0789%
- Epithelial cells (%) in BAL (mice; inhaled 50 mM): 36.1375 ± 4.52%
- Lymphocytes (%) in BAL (mice; inhaled 50 mM): 0.275 ± 0.1161%
- Macrophages (%) in BAL (mice; inhaled 50 mM): 63.1625 ± 4.695%
- Neutrophils (%) in BAL (mice; inhaled 50 mM): 0.2 ± 0.3505%
- Eosinophils (%) in BAL (mice; inhaled 75 mM): 0.0375 ± 0.0375%
- Epithelial cells (%) in BAL (mice; inhaled 75 mM): 30.8875 ± 1.349%
- Lymphocytes (%) in BAL (mice; inhaled 75 mM): 0.075 ± 0.0491%
- Macrophages (%) in BAL (mice; inhaled 75 mM): 68.9 ± 1.334%
- Neutrophils (%) in BAL (mice; inhaled 75 mM): 0.0375 ± 0.1061%

Compound: C[C@@H]1C[C@H]2[C@@H]3C[C@H](F)C4=CC(=O)C=C[C@]4(C)[C@@]3(F)[C@@H](O)C[C@]2(C)[C@@]1(O)C(=O)SCF [Fluticasone, reference compound]
- Eosinophils (%) in BAL (OVA exposed mice [3]; [6]): 32.92 ± 7.306 %
- Epithelial cells (%) in BAL (OVA exposed mice [3]; [6]): 22.85 ± 5.343%
- Lymphocytes (%) in BAL (OVA exposed mice [3]; [6]): 1.68 ± 0.7115%
- Macrophages (%) in BAL (OVA exposed mice [3]; [6]): 40.52 ± 3.122%
- Neutrophils (%) in BAL (OVA exposed mice [3]; [6]): 1.85 ± 1.093%
- Total cells (10^4/ml) in BAL (OVA exposed mice [3]; [6]): 75.92 ± 11.922 10^4/ml

Compound: OC[C@H]1O[C@@H]2O[C@H]3[C@H](O)[C@@H](O)[C@@H](O[C@H]4[C@H](O)[C@@H](O)[C@@H](O[C@H]5[C@H](O)[C@@H](O)[C@@H](O[C@H]6[C@H](O)[C@@H](O)[C@@H](O[C@H]7[C@H](O)[C@@H](O)[C@@H](O[C@H]8[C@H](O)[C@@H](O)[C@@H](O[C@H]1[C@H](O)[C@H]2O)O[C@@H]8CO)O[C@@H]7CO)O[C@@H]6CO)O[C@@H]5CO)O[C@@H]4CO)O[C@@H]3CO [β-CD, β-cyclodextrin]
- peribronchial inflammation score (OVA exposed mice [2]; concentration not given, FIG. 2): did not reduce
- IL-13 levels in BAL (IL-13; FIG. 7b): increased
- peribronchial eosinophil infiltration (OVA exposed mice [4]): decrease reached statistical significance
- number of eosinophils in BAL (OVA exposed mice [3]; after allergen exposure, concentration not given, FIG. 1): tendency to increase
